Test results from US20240238426A1, “PROTEIN ACYLATION MODULATION BY HETEROBIFUNCTIONAL MOLECULES” (THE SCRIPPS RESEARCH INSTITUTE, priority 2021, published 2024).

Tests used:
[1] = system: p21 (CDKNIA), PUMA, MDM2, and GLS2; experiment: Immunoblot of p53 target gene expression in FKBP12^F36V-p53 H1299 cells; type: cell-based, Human; details: 8 hr; for effect of co-treatment on AceTAG-1 induced p21 expression: 3 μM AceTAG-1 with 10 μM A485 or 50 μM FKBP12^F36V-binding ligand, FIG. 7E
Experimental: (§1) Immunoblotting: Cells were harvested in cold DPBS by scraping and washed with cold DPBS twice. Cell pellets were resuspended in DPBS supplemented with 5 mM sodium butyrate, 20 mM Nicotinamide, and 1X Halt Protease Inhibitor Cocktail and lysed by sonication (15 ms on, 40 ms off, 15% amplitude, 1s total on x 3). Protein concentration was determined using DC Protein Assay (Bio-Rad) and absorbance read using a CLARIOstar plate reader following manufacturer's instructions. Samples with equal protein content were boiled in 4X SDS gel loading buffer for 10 min. Proteins were separated by 10%, 12.5%, or 15% SDS-polyacrylamide gel electrophoresis and transferred to PVDF membranes using Trans-Blot Turbo RTA Mini […] LF PVDF Transfer Kit (Bio-Rad). Membranes were incubated for 1 h at room temperature with blocking buffer, followed by incubating overnight at 4° C. with primary antibodies. After washing in TBST, the secondary antibodies were incubated with the membranes at room temperature for 1 h. The membranes were washed with TBST for three times and visualized on a Bio-Rad ChemiDoc MP Imaging System with Clarity Max Western ECL substrate (Bio-Rad) or SuperSignal West Femto Chemiluminescent substrate proprietary luminol and peroxide solution kit (Thermo Scientific Pierce).

[2] = molecular target: T1, H3.3-FKBP12^F36V (Homo sapiens, UniProt P62942+Q09472, F37V); experiment: Immunoblot analysis of H3.3-FKBP12^F36V acetylation in HeLa cells; type: cell-based; details: for acetylation of H3.3: HeLa cells, FIG. 8
T1 construct: expressed in transfected cells
T1 sequence (P62942 2-108 F37V limits assumed): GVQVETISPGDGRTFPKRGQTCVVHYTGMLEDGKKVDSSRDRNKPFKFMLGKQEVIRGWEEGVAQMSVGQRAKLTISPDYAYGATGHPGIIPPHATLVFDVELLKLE
T1 sequence (Q09472 2-2414 limits assumed, stated change not applied): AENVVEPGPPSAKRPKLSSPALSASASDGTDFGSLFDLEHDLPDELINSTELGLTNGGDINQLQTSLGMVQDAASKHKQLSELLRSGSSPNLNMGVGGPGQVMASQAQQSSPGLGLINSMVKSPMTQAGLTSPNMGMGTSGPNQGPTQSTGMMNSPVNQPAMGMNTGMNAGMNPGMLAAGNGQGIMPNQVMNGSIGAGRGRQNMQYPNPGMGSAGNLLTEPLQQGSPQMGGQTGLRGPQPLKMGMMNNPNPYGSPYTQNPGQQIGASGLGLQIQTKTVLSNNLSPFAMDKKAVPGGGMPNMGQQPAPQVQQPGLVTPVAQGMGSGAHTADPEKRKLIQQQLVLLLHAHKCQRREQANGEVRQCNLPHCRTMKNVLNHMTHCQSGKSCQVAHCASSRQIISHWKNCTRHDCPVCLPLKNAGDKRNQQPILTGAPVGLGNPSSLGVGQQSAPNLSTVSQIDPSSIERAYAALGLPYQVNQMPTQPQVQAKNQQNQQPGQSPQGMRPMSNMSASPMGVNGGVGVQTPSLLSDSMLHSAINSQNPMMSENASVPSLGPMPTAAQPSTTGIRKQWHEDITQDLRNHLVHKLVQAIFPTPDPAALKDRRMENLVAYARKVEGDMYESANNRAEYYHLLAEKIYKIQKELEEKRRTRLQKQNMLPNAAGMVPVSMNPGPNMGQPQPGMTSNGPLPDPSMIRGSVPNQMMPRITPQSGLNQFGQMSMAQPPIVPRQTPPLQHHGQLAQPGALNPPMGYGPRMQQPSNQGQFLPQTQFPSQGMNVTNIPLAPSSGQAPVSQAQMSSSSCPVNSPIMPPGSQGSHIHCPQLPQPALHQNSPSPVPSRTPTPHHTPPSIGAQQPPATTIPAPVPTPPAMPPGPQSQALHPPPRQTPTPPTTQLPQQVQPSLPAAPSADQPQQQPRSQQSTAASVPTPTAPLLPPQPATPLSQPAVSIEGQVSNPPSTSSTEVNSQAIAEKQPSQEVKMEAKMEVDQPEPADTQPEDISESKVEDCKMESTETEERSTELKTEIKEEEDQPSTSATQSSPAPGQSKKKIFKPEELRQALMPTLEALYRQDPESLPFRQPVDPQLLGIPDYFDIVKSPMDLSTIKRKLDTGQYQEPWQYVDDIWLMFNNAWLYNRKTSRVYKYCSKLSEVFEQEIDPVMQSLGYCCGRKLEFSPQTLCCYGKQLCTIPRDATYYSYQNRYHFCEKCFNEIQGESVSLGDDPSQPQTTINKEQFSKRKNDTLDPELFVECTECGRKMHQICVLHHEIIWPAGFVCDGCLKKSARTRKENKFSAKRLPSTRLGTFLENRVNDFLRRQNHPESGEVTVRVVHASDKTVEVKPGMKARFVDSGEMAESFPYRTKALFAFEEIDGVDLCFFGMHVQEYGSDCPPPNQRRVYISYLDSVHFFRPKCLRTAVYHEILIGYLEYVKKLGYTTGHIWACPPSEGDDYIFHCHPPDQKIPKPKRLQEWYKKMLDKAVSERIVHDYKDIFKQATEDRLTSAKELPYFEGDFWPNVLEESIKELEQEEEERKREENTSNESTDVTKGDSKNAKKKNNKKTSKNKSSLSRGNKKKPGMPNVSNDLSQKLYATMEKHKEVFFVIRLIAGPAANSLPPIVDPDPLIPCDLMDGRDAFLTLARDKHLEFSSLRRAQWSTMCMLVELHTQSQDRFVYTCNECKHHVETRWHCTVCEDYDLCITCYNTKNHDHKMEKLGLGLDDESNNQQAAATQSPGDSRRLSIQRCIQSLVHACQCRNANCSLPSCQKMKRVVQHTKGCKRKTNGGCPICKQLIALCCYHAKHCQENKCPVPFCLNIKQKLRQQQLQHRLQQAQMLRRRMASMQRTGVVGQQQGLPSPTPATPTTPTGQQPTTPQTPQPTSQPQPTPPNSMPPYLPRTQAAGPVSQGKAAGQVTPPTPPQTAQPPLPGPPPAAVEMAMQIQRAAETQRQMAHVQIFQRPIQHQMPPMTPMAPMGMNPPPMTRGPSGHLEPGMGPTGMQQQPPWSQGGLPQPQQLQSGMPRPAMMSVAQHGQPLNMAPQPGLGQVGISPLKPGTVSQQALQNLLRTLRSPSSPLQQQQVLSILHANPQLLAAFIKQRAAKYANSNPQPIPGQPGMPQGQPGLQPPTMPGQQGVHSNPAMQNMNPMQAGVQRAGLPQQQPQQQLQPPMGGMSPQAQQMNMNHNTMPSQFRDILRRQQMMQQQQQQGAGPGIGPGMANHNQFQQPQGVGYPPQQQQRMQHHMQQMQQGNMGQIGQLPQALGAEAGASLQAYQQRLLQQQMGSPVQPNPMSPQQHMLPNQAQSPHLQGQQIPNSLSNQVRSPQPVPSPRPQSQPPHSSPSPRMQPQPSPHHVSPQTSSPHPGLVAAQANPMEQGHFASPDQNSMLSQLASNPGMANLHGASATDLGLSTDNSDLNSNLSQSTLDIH
Experimental: (§2) Lentivirus Production and Transduction: Lentiviral production was performed using HEK293T cells, which were co-transfected with pMD2.G (Addgene, #12259), psPAX2 (Addgene, #12260), and AceTAG lentiviral plasmids using PEI (Polysciences Inc). Viral particles were collected 72 h after transfection and filtered through a […] membrane. A range of dilutions of the lentivirus in DMEM complete and 10 μg/mL polybrene were added to HeLa, H1299, or HeLa RelA KO cell lines. Transduced cells were selected with 1 μg/mL or 2 μg/mL puromycin.
as §1

[3] = system: T2, FKBP12^F36V-p53 (Homo sapiens, F37V); experiment: Immunoblot analysis of FKBP12^F36V-p53 acetylation in H1299 cells; type: cell-based; details: 625 nM AceTAG-1 with 50 μM FKBP ligand or 1 μM A485, 2 hr, FIG. 6D
T2 construct: expressed in transfected cells
T2 sequence (P62942 2-108 F37V limits assumed): as the sequence (P62942 2-108 F37V limits assumed) above
T2 sequence (Q09472 2-2414 limits assumed, stated change not applied, further chain): as the sequence (Q09472 2-2414 limits assumed, stated change not applied) above
Experimental: as §2, §1

[4] = system: T3, FKBP12^F36V-RelA (Homo sapiens, F37V); experiment: Immunoblot analysis of FKBP12^F36V-RelA acetylation in RelA-/- HeLa cells; type: cell-based; details: 625 nM AceTAG-1 with 50 μM FKBP ligand or 1 μM A485, 2 hr, FIG. 6B
T3 construct: expressed in transfected cells
T3 sequence (P62942 2-108 F37V limits assumed): as the sequence (P62942 2-108 F37V limits assumed) above
T3 sequence (Q09472 2-2414 limits assumed, stated change not applied, further chain): as the sequence (Q09472 2-2414 limits assumed, stated change not applied) above
Experimental: as §2, §1

[5] = system: H3.3-FKBP12^F36V HeLa cells; experiment: Quantitative acetylproteomics of H3.3-FKBP12^F36V HeLa cells; type: cell-based, Human; details: 2 μM SAHA, FIG. 5E
Experimental: Sample preparation: Frozen cell pellets were thawed on ice and lysed in a buffer containing 50 mM Tris-HCl (pH 7.5), 150 mM NaCl, 1 mM EDTA, 1% NP-40, 0.1% sodium deoxycholate, 5 mM sodium butyrate, 10 mM nicotinamide and 1X Pierce™ protease inhibitor cocktail. Cells were sonicated to ensure complete lysis, mixed with 5 M NaCl at a ratio of 1:10 with sample volume and incubated on ice for 15 min to release chromatin-bound proteins. Cell lysates were then sonicated again to shear genomic DNA. Cellular debris was cleared by centrifugation at 16,000 g for 20 min at 4° C., protein concentration was determined using a Pierce™ BCA assay and ˜10 mg of protein was aliquoted for acetyl-proteomic analysis. Proteins were denatured with 8 M urea in 50 mM HEPES, reduced with 5 mM dithiothreitol for 30 min at 56° C., then alkylated with 5 mM iodoacetamide for 20 min in the dark at RT. Following alkylation, proteins were precipitated using chloroform-methanol as previously described, and protein pellets were dried at 56° C. for 15 min. Proteins pellets were resuspended in 1 M urea in 50 mM HEPES and digested in a two-step process with LysC and trypsin as previously described. Digested peptides were desalted using Phenomenex Strata-X polymeric reverse phase extraction cartridges using the following protocol. Cartridges were conditioned with 1 mL 100% acetonitrile, 1 mL 80% acetonitrile/0.5% AA, and 1 mL 0.1% TFA. Peptides were then loaded on to the cartridge at a reduced flow rate and desalted with 5 mL 0.1% TFA followed by 1 mL 0.5% AA. Desalted peptides were eluted using 1 mL 40% acetonitrile/0.5% AA followed by 1 mL 80% acetonitrile/0.5% AA and lyophilized. Digested peptides were quantified using the Pierce™ Quantitative Colorimetric Peptide Assay and […] was aliquoted from each for total protein analysis while the remaining peptide was lyophilized and retained for acetyl-peptide enrichment.
Acetyl-peptide Enrichment: Acetyl-peptides were enriched using the PTMScan® Acetyl-Lysine Motif [Ac-K] Kit according to manufacturer instructions. […]

[6] = molecular target: 6xHis-p300-BRD (active motif #31372) (UniProt Q09472); experiment: AlphaScreen, GST-FKBP12^F36V and 6xHis-p300-BRD with a titration of the small molecule AceTAG-1; bell-shaped curve
Chain of 6xHis-p300-BRD (active motif #31372) (Q09472 1040-1161 limits assumed): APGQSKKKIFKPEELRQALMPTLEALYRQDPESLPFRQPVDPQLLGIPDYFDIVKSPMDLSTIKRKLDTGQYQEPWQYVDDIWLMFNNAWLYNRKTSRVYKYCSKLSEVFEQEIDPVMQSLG

## CNC(=O)Nc1ccc2c(c1)CC[C@@]21OC(=O)N(CC(=O)N(Cc2ccc(F)cc2)[C@@H](C)C(F)(F)F)C1=O [A485, reference compound]
[1]
  effect of co-treatment on AceTAG-1 induced p21 expression: blocked

## CC[C@H](C(=O)N1CCCC[C@H]1C(=O)O[C@H](CCc1ccc(OC)c(OC)c1)c1cccc(OCC(=O)NCCOCCOCCOCCC(=O)NCCOc2ccc(CCc3nc4cc(-c5c(C)noc5C)ccc4n3CCN3CCOCC3)cc2)c1)c1cc(OC)c(OC)c(OC)c1 [AceTAG-2, (R)-3-(3,4-dimethoxyphenyl)-1-(3-((18-(4-(2-(5-(3,5-dimethylisoxazol-4-yl)-1-(2-morpholinoethyl)-1H-benzo[d]imidazol-2-yl)ethyl)phenoxy)-2,15-dioxo-6,9,12-trioxa-3,16-diazaoctadecyl)oxy)phenyl)propyl (S)-1-((S)-2-(3,4,5-trimethoxyphenyl)butanoyl)piperidine-2-carboxylate]
[2]
  acetylation of H3.3: significant acetylation of H3.3

## CC[C@H](C(=O)N1CCCC[C@H]1C(=O)O[C@H](CCc1ccc(OC)c(OC)c1)c1cccc(OCC(=O)NCCCCCCCC(=O)NCCOc2ccc(CCc3nc4cc(-c5c(C)noc5C)ccc4n3CCN3CCOCC3)cc2)c1)c1cc(OC)c(OC)c(OC)c1 [AceTAG-3, (R)-3-(3,4-dimethoxyphenyl)-1-(3-(2-((8-((2-(4-(2-(5-(3,5-dimethylisoxazol-4-yl)-1-(2-morpholinoethyl)-1H-benzo[d]imidazol-2-yl)ethyl)phenoxy)ethyl)amino)-8-oxooctyl)amino)-2-oxoethoxy)phenyl)propyl (S)-1-((S)-2-(3,4,5-trimethoxyphenyl)butanoyl)piperidine-2-carboxylate]
[2]
  acetylation of H3.3: significant acetylation of H3.3

## CC[C@H](C(=O)N1CCCC[C@H]1C(=O)OC(CCc1ccc(OC)c(OC)c1)c1cccc(OCC(=O)NCCCCCCCC(=O)NCCOc2ccc(CCc3nc4cc(-c5c(C)noc5C)ccc4n3CCN3CCOCC3)cc2)c1)c1cc(OC)c(OC)c(OC)c1 (some centres unmarked) [AceTAG-4]
[2]
  acetylation of H3.3: significant acetylation of H3.3

## CCCNC(=O)COc1cccc([C@@H](CCc2ccc(OC)c(OC)c2)OC(=O)[C@@H]2CCCCN2C(=O)[C@@H](CC)c2cc(OC)c(OC)c(OC)c2)c1 [FKBP-c, (R)-3-(3,4-dimethoxyphenyl)-1-(3-(2-oxo-2-(propylamino)ethoxy)phenyl)propyl (S)-1-((S)-2-(3,4,5-trimethoxyphenyl)butanoyl)piperidine-2-carboxylate]
[2]; 625 nM AceTAG-1 with 50 μM FKBP ligand or 1 μM A485, 2 hr, FIG. 4D
  effect of co-treatment on AceTAG-1 induced acetylation of H3.3-FKBP12^F36V: blocked
[3]
  effect of co-treatment on AceTAG-1 induced p53 acetylation: blockade of induced acetylation
[4]
  effect of co-treatment on AceTAG-1 induced RelA acetylation: blockade of induced acetylation
[1]
  effect of co-treatment on AceTAG-1 induced p21 expression: blocked
[1]; 3 μM, compared to 3 μM AceTAG-1, FIG. 7E
  p21 expression level with ligand alone: neither p300 nor FKBP ligand alone increases p21 expression level

## O=C(CCCCCCC(=O)Nc1ccccc1)NO [SAHA, Vorinostat, reference compound]
[5]
  number of proteins with increased acetylation relative to DMSO: ~30 proteins

## GST-FKBP12^F36V (from UniProt P62942 2-108)
[6]
  AceTAG-1 concentration at maximum ternary complex formation: 1 µM
